Patent US9284303B2, “Benzimidazole cannabinoid agonists bearing a substituted heterocyclic group” (priority 2006, dated 2016)

Legend:
[1] = biological target: T1, human CB2 (hCB2) receptor (Homo sapiens, UniProt P34972); test: Inhibition of forskolin-activated cAMP production upon activation of hCB2 (HTRF), CHO-K1 cells; type: cell-based; details: for ratio CB2 agonism over CB1 agonism: Table C-1, selectivity hCB2 over hCB1; for EC50: hCB2-CHO-K1 cells, forskolin-activated cAMP, pEC50=-log(EC50), read-out: CB2 pEC50 (converted); for ratio CB2 over CB1 agonism: Table C-3, comparison of art compounds A to E with compounds of the invention
T1 construct: expressed in transfected cells; host or cells: CHO-K1

[2] = biological target: T2, human CB1 (hCB1) receptor (Homo sapiens, UniProt P21554); test: Inhibition of forskolin-activated cAMP production upon activation of hCB1 (HTRF), CHO-K1 cells; type: cell-based; details: forskolin-activated cAMP, pEC50=-log(EC50); for EC50: CB1 pEC50, hCB1-CHO-K1 cells; for CB1 pEC50: hCB1-CHO-K1 cells
T2 construct: expressed in transfected cells; host or cells: CHO-K1
How it was run: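 CHO-K1 cells stably expressing hCB1 (20,000/well) were in HBSS stimulation buffer (1 mM IBMX, 10 mM MgCl2, 0.1% BSA, pH 7.4), with 6 μM forskolin in the compound buffer, 30 min at room temperature in the dark. cAMP was read as HTRF 665/620 ratio, normalized to DMSO and CP55490. Outputs were pEC50 and inhibition at 10 μM relative to CP55490.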

T2 sequence (P21554 whole entry): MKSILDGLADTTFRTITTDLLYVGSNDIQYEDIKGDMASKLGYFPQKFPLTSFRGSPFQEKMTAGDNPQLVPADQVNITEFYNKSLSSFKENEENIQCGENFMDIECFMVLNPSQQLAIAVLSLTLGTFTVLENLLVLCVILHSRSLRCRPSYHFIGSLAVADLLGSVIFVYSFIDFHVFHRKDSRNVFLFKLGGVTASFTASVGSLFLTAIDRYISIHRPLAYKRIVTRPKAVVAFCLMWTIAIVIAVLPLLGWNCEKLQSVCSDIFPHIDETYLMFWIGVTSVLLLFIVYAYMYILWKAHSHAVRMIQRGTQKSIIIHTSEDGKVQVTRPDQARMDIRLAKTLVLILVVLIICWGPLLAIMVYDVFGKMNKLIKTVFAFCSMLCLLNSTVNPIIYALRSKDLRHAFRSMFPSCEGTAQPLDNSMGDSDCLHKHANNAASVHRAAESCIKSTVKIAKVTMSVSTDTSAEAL
T1 sequence (P34972 whole entry): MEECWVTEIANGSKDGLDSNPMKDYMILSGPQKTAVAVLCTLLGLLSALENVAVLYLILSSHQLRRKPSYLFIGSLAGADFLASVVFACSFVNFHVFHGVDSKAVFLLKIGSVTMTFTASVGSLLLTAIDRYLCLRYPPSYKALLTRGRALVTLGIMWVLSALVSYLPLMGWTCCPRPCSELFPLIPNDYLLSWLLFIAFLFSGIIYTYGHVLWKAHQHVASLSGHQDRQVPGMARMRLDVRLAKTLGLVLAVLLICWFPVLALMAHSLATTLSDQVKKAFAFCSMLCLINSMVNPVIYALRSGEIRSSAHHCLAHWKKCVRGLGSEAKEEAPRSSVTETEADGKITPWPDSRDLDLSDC

Compound	ratio CB2 agonism over CB1 agonism [1]	EC50 [1] [nM]	melting point [°C]	EC50 [2] [nM]	ratio CB2 over CB1 agonism [1]	CB1 pEC50 [2]
CC(C)(C)c1nc2cc(S(=O)(=O)c3c(Cl)cncc3Cl)ccc2n1CC1CCOCC1 [Co. No. 84]	490	1.26	242.9	617		
CC(C)(C)c1nc2cc(S(=O)(=O)c3ccc(S(C)(=O)=O)nc3)ccc2n1CC1CCCCC1 [Co. No. 27]	>14125	0.708	200	> 10000		
CC(C)(C)c1nc2cc(S(=O)(=O)c3ccnc(F)c3)ccc2n1CC1CCS(=O)(=O)CC1 [Co. No. 133]	>2512	3.98	220.8	> 10000		
CC(C)(C)c1nc2cc(S(=O)(=O)c3ccc(C(N)=O)s3)ccc2n1CC1CCOCC1 [Co. No. 73]	84	1.38	209.4	117		
CC(C)(C)c1nc2cc(S(=O)(=O)c3ccnc(F)c3)ccc2n1CCN1CCCC1 [Co. No. 144]	>3090	3.24	115.5	> 10000		
Cc1oc(S(=O)(=O)c2ccc3c(c2)nc(C(C)(C)C)n3CC2CCOCC2)cc1S(C)(=O)=O [Co. No. 68]	116	3.09	204 to 205	363		
Cc1cc(S(=O)(=O)c2ccc3c(c2)nc(CC(C)(C)C)n3CC2CCOCC2)ccn1 [Co. No. 24]	407	2.19	207.1	891	407	
CC(C)(C)c1nc2cc(S(=O)(=O)c3ccnc(F)c3)ccc2n1CC1CCN(C=O)CC1 [Co. No. 112]	>2030	4.9	196.7	> 10000		
CC(C)(C)c1nc2cc(S(=O)(=O)c3ccc(C(=O)N4CCOCC4)o3)ccc2n1CC1CCOCC1 [Co. No. 80]	2483	4.17	172.1	10500		
CC(C)(C)c1nc2cc(S(=O)(=O)c3ccnc(OCCCO)c3)ccc2n1CC1CCOCC1 [Co. No. 152]	3090	1.17	161.5			5.44
CC(C)(C)c1nc2cc(S(=O)(=O)c3cc(C(F)(F)F)ccn3)ccc2n1CC1CCOCC1 [Co. No. 105]	295	1.58	139.5 to 141	479		
Cc1nccc(S(=O)(=O)c2ccc3c(c2)nc(C(C)(C)C)n3CC2CCOCC2)n1 [Co. No. 107]	646	2.4	179.7	1550		
Cn1nc(S(=O)(=O)c2ccc3c(c2)nc(C(C)(C)C)n3CC2CCOCC2)ccc1=O [Co. No. 100]	631	1.58	224.3	1000		
CC(C)(C)c1nc2cc(S(=O)(=O)c3cc(O)ncc3F)ccc2n1CC1CCOCC1 [Co. No. 82]	407	3.89	291.8 to 294.6	1580		
CC(C)(C)c1nc2cc(S(=O)(=O)c3ccc(S(C)(=O)=O)nc3)ccc2n1CC1CCOCC1 [Co. No. 56]	>3802	2.63	150 to 160	> 10000		
CC(C)(C)c1nc2cc(S(=O)(=O)c3ccnc(F)c3)ccc2n1CC1CCC(=O)CC1 [Co. No. 134]	2786	1.38	164.8	3800		
CC(C)(C)c1nc2cc(S(=O)(=O)c3ccc(-c4ncon4)s3)ccc2n1CC1CCOCC1 [Co. No. 48]	347	0.575	199	200		
CC(=O)N1CCC(Cn2c(C(C)(C)C)nc3cc(S(=O)(=O)c4ccc(C#N)s4)ccc32)CC1 [Co. No. 159]	>4677	2.14	181.2	> 10000		
COCCNC(=O)c1ccc(S(=O)(=O)c2ccc3c(c2)nc(C(C)(C)C)n3CC2CCCCC2)nc1 [Co. No. 37]	>10839	0.933	206 to 207	> 10000		
CC(=O)Nc1cc(S(=O)(=O)c2ccc3c(c2)nc(C(C)(C)C)n3CC2CCOCC2)ccn1 [Co. No. 22]	1758	1.12	262.3	2000	1758	

Compound	ratio CB2 agonism over CB1 agonism [1]	EC50 [1] [nM]	melting point [°C]	EC50 [2] [nM]	ratio CB2 over CB1 agonism [1]	CB1 pEC50 [2]
CC(=O)NCCOc1cc(S(=O)(=O)c2ccc3c(c2)nc(C(C)(C)C)n3CC2CCOCC2)ccn1 [Co. No. 121]	912	3.09	182.3	2820		
COCCCOc1cc(S(=O)(=O)c2ccc3c(c2)nc(C(C)(C)C)n3CC2CCOCC2)ccn1 [Co. No. 151]	8035	0.479	106.5			5.41
CC(C)(C)c1nc2cc(S(=O)(=O)c3ccnc(F)c3)ccc2n1CCC1CCOCC1 [Co. No. 128]	>4786	2.09	177.8	> 10000		
CC(=O)Nc1cc(S(=O)(=O)c2ccc3c(c2)nc(C(C)(C)C)n3CC2CCOCC2)cc[n+]1[O-] [Co. No. 96]		2	247.2	> 10000		
COc1cc(S(=O)(=O)c2ccc3c(c2)nc(C(C)(C)C)n3CC2CCOCC2)c(F)cn1 [Co. No. 72]	1525	0.676	139.6 to 140.2	1020		
CC(C)(C)c1nc2cc(S(=O)(=O)c3ccnc(F)c3)ccc2n1C[C@H]1CC[C@H](O)CC1 [Co. No. 146]	>3981	2.51	163.6	> 10000		
COC(=O)c1cc(C)c(S(=O)(=O)c2ccc3c(c2)nc(C(C)(C)C)n3CC2CCOCC2)s1 [Co. No. 81]	2138	0.501	185.8	1070		
CC(C)(C)c1nc2cc(S(=O)(=O)c3ccc(C4(C)OCCO4)cn3)ccc2n1CC1CCOCC1 [Co. No. 45]	>3311	3.02	191	> 10000		
CC1(C)CC(Cn2c(C(C)(C)C)nc3cc(S(=O)(=O)c4ccnc(F)c4)ccc32)CCO1 (stereo not drawn) [Co. No. 149]	>8035	1.26	159.4	> 10000		
CC(=O)Nc1ccc(S(=O)(=O)c2ccc3c(c2)nc(C(C)(C)C)n3CC2CCOCC2)nn1 [Co. No. 101]	58	2.51	290.1	148		
CC(C)(C)c1nc2cc(S(=O)(=O)c3ccnc(O)c3)ccc2n1CC1CCOCC1 [Co. No. 8]	1514	3.09	> 300	4680	1514	
CC(C)(C)c1nc2cc([S+]([O-])c3ccncc3Br)ccc2n1CC1CCOCC1 (stereo not drawn) [Co. No. 88]	537	2.34	184.7	1260		
CC(C)(C)c1nc2cc(S(=O)(=O)c3ccc(S(=O)(=O)N4CCOCC4)s3)ccc2n1CC1CCOCC1 [Co. No. 7]	>5495	1.82	198	> 10000		
CC(C)(C)c1nc2cc(S(=O)(=O)c3cccc(C#N)n3)ccc2n1CC1CCOCC1 [Co. No. 98]	794	0.955	224.5 to 226.7	741		
Cn1ccc(S(=O)(=O)c2ccc3c(c2)nc(C(C)(C)C)n3CC2CCOCC2)cc1=O [Co. No. 69]	398	1.74	216	692		
COc1ccc(S(=O)(=O)c2ccc3c(c2)nc(C(C)(C)C)n3CC2CCOCC2)nn1 [Co. No. 11]	48	1.26	174 to 180	60.3		
CC(C)(C)c1nc2cc(S(=O)(=O)c3ccc(S(C)(=O)=O)cn3)ccc2n1CC1CCOCC1 [Co. No. 67]	>2344	4.27	183	> 10000		
CC(=O)c1ccc(S(=O)(=O)c2ccc3c(c2)nc(C(C)(C)C)n3CC2CCOCC2)s1 [Co. No. 40]	193	1.07	151	209		
CN(C)CCCOc1cc(S(=O)(=O)c2ccc3c(c2)nc(C(C)(C)C)n3CC2CCOCC2)ccn1 [Co. No. 129]	617	15.5	119.4	9550		
CC(C)(C)c1nc2cc(S(=O)(=O)c3sc(S(=O)(=O)N4CCOCC4)cc3Br)ccc2n1CC1CCOCC1 [Co. No. 65]	>3388	2.95	230	> 10000		
